# Results taken from patent US11304946B2, “2-hetarylpyrimidine-4-carboxamides as aryl hydrocarbon receptor antagonists” (Bayer Aktiengesellschaft, priority 2017, dated 2022).
# Target: T1, Human AhR (Homo sapiens, UniProt P35869)
# T1 construct: host or cells: U87 glioblastoma cells, stably transfected with DRE-driven firefly luciferase and constitutive renilla reporter constructs
# T1 sequence (P35869 11-848): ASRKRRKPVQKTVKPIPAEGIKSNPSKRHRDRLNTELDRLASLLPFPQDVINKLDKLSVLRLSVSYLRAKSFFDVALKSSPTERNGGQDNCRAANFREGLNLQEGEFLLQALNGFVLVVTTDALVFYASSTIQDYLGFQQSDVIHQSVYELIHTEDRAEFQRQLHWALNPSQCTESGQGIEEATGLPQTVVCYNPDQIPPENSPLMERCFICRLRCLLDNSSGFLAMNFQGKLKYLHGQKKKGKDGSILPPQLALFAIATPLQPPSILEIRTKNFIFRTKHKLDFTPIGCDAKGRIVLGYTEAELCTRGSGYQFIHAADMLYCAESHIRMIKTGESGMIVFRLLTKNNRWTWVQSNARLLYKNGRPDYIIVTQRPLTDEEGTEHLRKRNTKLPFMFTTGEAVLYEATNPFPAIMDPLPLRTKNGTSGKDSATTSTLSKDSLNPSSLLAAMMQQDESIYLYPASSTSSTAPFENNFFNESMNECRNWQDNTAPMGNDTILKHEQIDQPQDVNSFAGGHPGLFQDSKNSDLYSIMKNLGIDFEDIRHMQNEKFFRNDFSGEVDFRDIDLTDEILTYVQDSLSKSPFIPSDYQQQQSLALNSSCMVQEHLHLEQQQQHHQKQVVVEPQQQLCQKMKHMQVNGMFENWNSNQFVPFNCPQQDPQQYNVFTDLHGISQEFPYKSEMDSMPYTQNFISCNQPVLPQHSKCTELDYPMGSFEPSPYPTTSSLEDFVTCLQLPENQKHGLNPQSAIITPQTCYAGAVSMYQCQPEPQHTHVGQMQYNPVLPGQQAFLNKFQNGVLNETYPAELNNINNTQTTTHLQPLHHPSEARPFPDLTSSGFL
# Assay: Transactivation assay in human cell line (in vitro assay 1: antagonism)
# Assay type: cell-based
# Settings: U87 glioblastoma cells, AHR inducible (DRE) firefly luciferase reporter, 150 μM kynurenic acid, 20 hours
# Procedure: Transactivation Assay in Human Cell Line (In Vitro Assay 1)
# Transactivation assay was carried out in U87 glioblastoma cells (ATCC) endogenously expressing AHR. In addition the cells were stably transfected with an AHR inducible firefly luciferase reporter gene construct that carried AHR-binding sites (DRE) in its promoter and a renilla reporter gene construct with constitutively active promoter. Kynurenic acid is an endogenous AHR activating ligand and was used to prestimulate test cells prior to testing the antagonistic properties of compounds.
# In Vitro Assay 1: Antagonism in Human Cell Line
# Firefly luciferase and Renilla activity was determined by the DualGlo Luciferase Assay System (Promega, #2920). Renilla activity was used to assess toxic effects of compounds.
row,SMILES,IC50
1,"Cc1cn[nH]c1-c1nc(C(=O)N[C@@H](C)CO)cc(-c2ccc(OC(F)(F)F)cc2)n1 [Example 45, N-[(2S)-1-hydroxypropan-2-yl]-2-(4-methyl-1H-pyrazol-5-yl)-6-[4-(trifluoromethoxy)phenyl]pyrimidine-4-carboxamide]",57.2 nM
2,"CC(C)(O)CNC(=O)c1cc(-c2ccc(Cl)cc2)nc(-c2ccc(C#N)nc2)n1 [Example 59, 6-(4-chlorophenyl)-2-(6-cyanopyridin-3-yl)-N-(2-hydroxy-2-methylpropyl)pyrimidine-4-carboxamide]",6870 nM
3,"Cc1n[nH]cc1-c1nc(C(=O)N[C@@H](C)CO)cc(-c2ccc(Cl)cc2)n1 [Example 82, 6-(4-chlorophenyl)-N-[(2S)-1-hydroxypropan-2-yl]-2-(3-methyl-1H-pyrazol-4-yl)pyrimidine-4-carboxamide]",215 nM
4,"C[C@@H](CO)NC(=O)c1cc(-c2ccc(OC(F)(F)F)cc2)nc(-c2cnn(C3CC3)c2)n1 [Example 44, 2-(1-cyclopropyl-1H-pyrazol-4-yl)-N-[(2S)-1-hydroxypropan-2-yl]-6-[4-(trifluoromethoxy)phenyl]pyrimidine-4-carboxamide]",972 nM
5,"C[C@@H](CO)NC(=O)c1cc(-c2ccc(Cl)cc2)nc(-c2cnc(Cl)nc2)n1 [Example 84, 2′-chloro-6-(4-chlorophenyl)-N-[(2S)-1-hydroxypropan-2-yl][2,5′-bipyrimidine]-4-carboxamide]",17600 nM
6,"C[C@@H](CO)NC(=O)c1cc(-c2ccc(Cl)cc2)nc(-c2ccc(C#N)nc2)n1 [Example 78, 6-(4-chlorophenyl)-2-(6-cyanopyridin-3-yl)-N-[(2S)-1-hydroxypropan-2-yl]pyrimidine-4-carboxamide]",741 nM
7,"Cc1ncc(-c2nc(C(=O)N[C@@H](C)CO)cc(-c3ccc(OC(F)(F)F)cc3)n2)cn1 [Example 42, N-[(2S)-1-hydroxypropan-2-yl]-2′-methyl-6-[4-(trifluoromethoxy)phenyl][2,5′-bipyrimidine]-4-carboxamide]",120 nM
8,"CC(C)(O)CNC(=O)c1cc(-c2ccc(OC(F)(F)F)cc2)nc(-c2cnn(C3CC3)c2)n1 [Example 26, 2-(1-cyclopropyl-1H-pyrazol-4-yl)-N-(2-hydroxy-2-methylpropyl)-6-[4-(trifluoromethoxy)phenyl]pyrimidine-4-carboxamide]",3960 nM
9,"Cc1nn(C)cc1-c1nc(C(=O)NCC(C)(C)O)cc(-c2ccc(Cl)cc2)n1 [Example 66, 6-(4-chlorophenyl)-2-(1,3-dimethyl-1H-pyrazol-4-yl)-N-(2-hydroxy-2-methylpropyl)pyrimidine-4-carboxamide]",50.1 nM
10,"Cn1cc(-c2nc(C(=O)N[C@@H]3CS(=O)(=O)C[C@@H]3O)cc(-c3ccc(OC(F)(F)F)cc3)n2)cn1 (relative stereo) [Example 98, N-[(cis)-4-hydroxy-1,1-dioxo-1lambda^6-thiolan-3-yl]-2-(1-methyl-1H-pyrazol-4-yl)-6-[4-(trifluoromethoxy)phenyl]pyrimidine-4-carboxamide]",20.6 nM
11,"COc1ccc(-c2nc(C(=O)NCC(C)(C)O)cc(-c3ccc(OC(F)(F)F)cc3)n2)cn1 [Example 14, N-(2-hydroxy-2-methylpropyl)-2-(6-methoxypyridin-3-yl)-6-[4-(trifluoromethoxy)phenyl]pyrimidine-4-carboxamide]",307 nM
12,"Cc1cscc1-c1nc(C(=O)N[C@@H](C)CO)cc(-c2ccc(OC(F)(F)F)cc2)n1 [Example 29, N-[(2S)-1-hydroxypropan-2-yl]-2-(4-methylthiophen-3-yl)-6-[4-(trifluoromethoxy)phenyl]pyrimidine-4-carboxamide]",15.2 nM
13,"C[C@@H](CO)NC(=O)c1cc(-c2ccc(OC(F)(F)F)cc2)nc(-c2cccs2)n1 [Example 30, N-[(2S)-1-hydroxypropan-2-yl]-2-(thiophen-2-yl)-6-[4-(trifluoromethoxy)phenyl]pyrimidine-4-carboxamide]",6.38 nM
14,"Cn1cc(-c2nc(C(=O)N[C@H]3CC[C@H]3O)cc(-c3ccc(OC(F)(F)F)cc3)n2)cn1 (relative stereo) [Example 107, N-[(cis)-2-hydroxycyclobutyl]-2-(1-methyl-1H-pyrazol-4-yl)-6-[4-(trifluoromethoxy)phenyl]pyrimidine-4-carboxamide]",4.57 nM
15,"C[C@@H](CO)NC(=O)c1cc(-c2ccc(Cl)cc2)nc(-c2cccs2)n1 [Example 50, 6-(4-chlorophenyl)-N-[(2S)-1-hydroxypropan-2-yl]-2-(thiophen-2-yl)pyrimidine-4-carboxamide]",5.91 nM
16,"Cc1noc(C)c1-c1nc(C(=O)NCC(C)(C)O)cc(-c2ccc(Cl)cc2)n1 [Example 56, 6-(4-chlorophenyl)-2-(3,5-dimethyl-1,2-oxazol-4-yl)-N-(2-hydroxy-2-methylpropyl)pyrimidine-4-carboxamide]",965 nM
17,"CC(C)(O)CNC(=O)c1cc(-c2ccc(Cl)cc2)nc(-c2cc[nH]n2)n1 [Example 58, 6-(4-chlorophenyl)-N-(2-hydroxy-2-methylpropyl)-2-(1H-pyrazol-3-yl)pyrimidine-4-carboxamide]",328 nM
18,"CC(C)(O)CNC(=O)c1cc(-c2ccc(Cl)cc2)nc(-c2cnc(Cl)nc2)n1 [Example 67, 2′-chloro-6-(4-chlorophenyl)-N-(2-hydroxy-2-methylpropyl)[2,5′-bipyrimidine]-4-carboxamide]",12600 nM
19,"Cn1cc(-c2nc(C(=O)N[C@H]3CCC[C@H]3O)cc(-c3ccc(OC(F)(F)F)cc3)n2)cn1 (relative stereo) [Example 91, N-[(cis)-2-hydroxycyclopentyl]-2-(1-methyl-1H-pyrazol-4-yl)-6-[4-(trifluoromethoxy)phenyl]pyrimidine-4-carboxamide]",1.58 nM
20,"COc1ccc(-c2nc(C(=O)N[C@@H](C)CO)cc(-c3ccc(Cl)cc3)n2)cn1 [Example 69, 6-(4-chlorophenyl)-N-[(2S)-1-hydroxypropan-2-yl]-2-(6-methoxypyridin-3-yl)pyrimidine-4-carboxamide]",342 nM
21,"Cn1cc(-c2nc(C(=O)NCC3(O)CCC3)cc(-c3ccc(OC(F)(F)F)cc3)n2)cn1 [Example 97, N-[(1-hydroxycyclobutyl)methyl]-2-(1-methyl-1H-pyrazol-4-yl)-6-[4-(trifluoromethoxy)phenyl]pyrimidine-4-carboxamide]",4.99 nM
22,"COc1ccc(-c2nc(C(=O)NCC(C)(C)O)cc(-c3ccc(Cl)cc3)n2)cn1 [Example 46, 6-(4-chlorophenyl)-N-(2-hydroxy-2-methylpropyl)-2-(6-methoxypyridin-3-yl)pyrimidine-4-carboxamide]",431 nM
23,"Cc1ccsc1-c1nc(C(=O)N[C@@H](C)CO)cc(-c2ccc(OC(F)(F)F)cc2)n1 [Example 33, N-[(2S)-1-hydroxypropan-2-yl]-2-(3-methylthiophen-2-yl)-6-[4-(trifluoromethoxy)phenyl]pyrimidine-4-carboxamide]",9.25 nM
24,"CC(C)(O)CNC(=O)c1cc(-c2ccc(OC(F)(F)F)cc2)nc(-c2cnc(C#N)nc2)n1 [Example 23, 2′-cyano-N-(2-hydroxy-2-methylpropyl)-6-[4-(trifluoromethoxy)phenyl][2,5′-bipyrimidine]-4-carboxamide]",> 20000 nM
25,"COc1ccc(-c2nc(C(=O)N[C@@H](C)CO)cc(-c3ccc(OC(F)(F)F)cc3)n2)cn1 [Example 27, N-[(2S)-1-hydroxypropan-2-yl]-2-(6-methoxypyridin-3-yl)-6-[4-(trifluoromethoxy)phenyl]pyrimidine-4-carboxamide]",438 nM
26,"Cc1n[nH]cc1-c1nc(C(=O)NCC(C)(C)O)cc(-c2ccc(Cl)cc2)n1 [Example 65, 6-(4-chlorophenyl)-N-(2-hydroxy-2-methylpropyl)-2-(3-methyl-1H-pyrazol-4-yl)pyrimidine-4-carboxamide]",355 nM
27,"C[C@@H](CO)NC(=O)c1cc(-c2ccc(OC(F)(F)F)cc2)nc(-c2ccc(C#N)nc2)n1 [Example 38, 2-(6-cyanopyridin-3-yl)-N-[(2S)-1-hydroxypropan-2-yl]-6-[4-(trifluoromethoxy)phenyl]pyrimidine-4-carboxamide]",4510 nM
28,"CC(C)Cn1cc(-c2nc(C(=O)N[C@@H](C)CO)cc(-c3ccc(Cl)cc3)n2)cn1 [Example 77, 6-(4-chlorophenyl)-N-[(2S)-1-hydroxypropan-2-yl]-2-[1-(2-methylpropyl)-1H-pyrazol-4-yl]pyrimidine-4-carboxamide]",1180 nM
